Consider 1 compound from patent US9215868B2, “Low-foam preparations for crop protection” (Bayer Intellectual Property GmbH, priority 2006, dated 2015).

The subject of the experiment is leaves of monocotyledonous crop plants such as corn and dicotyledonous crop plants such as apples. The experiment can be described thus: Leaf penetration of water-soluble leaf fertilisers such as urea. The experiment is classed as in vivo. The conditions noted are these: urea 0.1 to 2% in spray liquor, in presence of 0.05 to 1% of one of the alkyl ether sulfates according to the invention; within a number of days. An excerpt:
In the case of foliar application of urea (0.1 to 2% in the spray liqour) to leaves of monocotyledonous crop plants such as corn and also to dicotyledonous crop plants such as apples, the rate of foliar uptake was increased within a number of days by a factor of at least two in the presence of 0.05 to 1% of one of the alkyl ether sulfates according to the invention.

For `NC(N)=O` [urea], the “factor of increase of rate of foliar uptake” value is “at least two”.
